In paper PMC12203432, “Multicatalysis-Enabled Multicomponent Reactions Generate a PTP1B Inhibitor” (ACS Central Science, 2025):
Read-outs that look alike come from different tables or passages of the source.

Assays:
Human PTP1B = target: T1, Human PTP1B (Homo sapiens, UniProt P18031); test: In vitro phosphatase activity assay (DiFMUP assay); assay type: biochemical
T1 construct: His6 (N); made in house; host or cells: E. coli BL21 DE3
T1 sequence (P18031 1-435): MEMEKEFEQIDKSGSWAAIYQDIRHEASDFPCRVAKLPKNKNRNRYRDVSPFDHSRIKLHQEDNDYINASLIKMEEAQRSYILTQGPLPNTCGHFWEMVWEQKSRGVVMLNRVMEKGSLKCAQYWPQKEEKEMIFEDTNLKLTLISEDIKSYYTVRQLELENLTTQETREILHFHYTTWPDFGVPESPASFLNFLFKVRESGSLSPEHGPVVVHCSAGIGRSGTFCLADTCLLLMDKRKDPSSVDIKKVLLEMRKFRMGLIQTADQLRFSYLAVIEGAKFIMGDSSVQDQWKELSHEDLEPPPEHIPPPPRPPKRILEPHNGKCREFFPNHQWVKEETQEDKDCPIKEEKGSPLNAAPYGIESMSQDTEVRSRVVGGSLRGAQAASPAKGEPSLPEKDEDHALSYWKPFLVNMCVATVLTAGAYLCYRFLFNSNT
From the text: To determine the value of CHBOs in drug discovery, we constructed a synthetically accessible library of CHBOs based on the substrate scope of the reaction we newly developed. […] To explore the relationship between inhibitor activity of 3ak against PTP1B and the stereochemistry, two enantiomers (S, S)-3ak and (R, R)-3ak were synthesized and evalutated in the DiFUMP assay (Figure a). […]
Protein expression and purification7: Human PTP1B construct was subcloned into pET28a(+) vector, which contains an N-terminal His6-tag. BL21 DE3 E. coli cells were transformed as follows: 2 µL of plasmid(100 ng/µL) and 200 µL of DE3 cells were incubated for 30 min on ice, a 45 second heat shock at […], 2 min on ice, recovery with 800 µL SOC for 1 h at 37 ℃ followed by plating on a Kanamycin agar plate (50µg/mL).One colony was picked and used to inoculate 10 mL of LB media supplemented with kanamycin (50µg/mL).When the culture reached OD600 = 0.6, 10mL were transferred to one liter of LB media supplemented with Kanamycin (50 µg/mL) and grown at 37 ℃ to an OD600 = 0.6. Media is transferred to a 16 ℃ incubator. Then, the media was supplemented with 500 µM Isopropyl β-D-1-thiogalactopyranoside (IPTG) at OD600 = 0.8 and incubated for 16 h. Cells were centrifuged (4000 rpm, 20 min) and liquid was decanted. Cells were resuspended in lysis buffer (50 mM HEPES, pH 7.4, 150 mM KCl, 5 mM MgCl2, 5% glycerol, 1 mM phenylmethane sulfonyl fluoride (PMSF), 2 mM 2-mercaptoethanol (β-met)). Cells were lysed in a cell crusher (pressure 1000 bar), the mixed products were collected, centrifuged (12000 rpm, 4°C, 20 min), and the supernatant was left to discard the precipitate. The nickel column was first equilibrated with equilibration solution, and then the protein supernatant was up-sampled twice to bind the protein. The proteins were then gradually eluted with imidazole (10, 20, 60, 200 mM imidazole).
The target protein-containing fractions confirmed by SDS PAGE were placed in […] MWCO protein ultrafiltration tubes and the imidazole were replaced with dialysis buffer (20 mM HEPES, 150 mM KCl, 1 mM MgCl2). After the imidazole was removed cleanly, an equal volume of glycerol was added as a protective solution. When concentration was determined to be greater than or equal to 1 mg /mL, protein was frozen with liquid nit rogen. Protein was then stored in a -80 ℃ freezer.
In Vitro Phosphatase Activity Assays8:Incubate 1 nM purified PTP1B protein with positive control or compound to be tested in reaction buffer (25 mM Bis-Tris propane pH 7.5, […]
50 mM NaCl, 2 mM EDTA, 2 mM DTT) for 10 min at 37°C in a total volume of 90 μL. Add 10 μL of substrate buffer containing DiFMUP (final concentration of 10 μM) to the reaction buffer […]
(§1) The fluorescence intensity at 455 nm was read using a multifunctional reader with 358 nm as the excitation light, and the measured fluorescence value was used to calculate the inhibition rate of the enzyme activity by the sample over the value of the blank wells. The IC50 values of the compounds were calculated by Graphpad Prism 7.0, using a non-linear fit of the inhibition rate to the concentration of the inhibitor. […]

MB231 cells = test: Cellular anti-cancer immunity assay (cancer cell growth inhibition with or without IFNγ, CCK8); assay type: cell-based; conditions: MB231 cell line; 0.5 ng/ml IFNγ or medium alone; 3 days
From the text: We further evaluated (S, S)-3ak with a cellular anticancer immunity assay. The assay measures the inhibition of cancer cell growth by compounds with or without cytokine IFNγ. , The synergy of testing compounds and IFNγ in inhibiting cancer cells implicates the testing compound contributes anticancer immunity. The synergy index is defined by the formula index = (IC50 ^IFNγ– – IC50 ^IFNγ+)/IC50 ^IFNγ+. […] In other words, we identified (S, S)-3ak as a promising PTP1B inhibitor, preparing for the coming hit-lead-candidate optimization.
as §1, with “50 mM NaCl, 2 mM EDTA, 2 mM DTT) for 10 min at 37°C in a total volume of 90 μL. […] The fluorescence” for “The fluorescence”
Cellular anti-cancer immunity assay9: MB231 cells were seeded at a density of 5000 cells per well in a 96-well plate and incubated at 37 °C. […] PTP1B inhibitors, including Osunprotafib as the positive control, were added, and cell confluence was monitored for 3 days. […]

[1] = DiFMUP assay at room temperature, positive control ABBV-CLS-484, negative control DMSO
[2] = PTP1B lC50 (μM), DiFMUP assay at room temperature, positive control ABBV-CLS-484, negative control DMSO
[3] = DiFMUP assay at room temperature, positive control ABBV-CLS-484, negative control DMSO, read-out: PTP1B lC50

Structure (SMILES): O=C1O[C@@H]([C@@]2(O)C(=O)N(Cc3ccccc3)c3cccc(I)c32)C=C1c1ccccc1 [6f]
- PTP1B lC50 (Human PTP1B; [1]): 8.17 ± 1.06 µM

Structure (SMILES): O=C1O[C@@H]([C@@]2(O)C(=O)N(Cc3ccccc3)c3ccccc32)C=C1c1ccccc1 [6a]
- IC50 (Human PTP1B): 10 to 30 µM
- IC50 (Human PTP1B; [2]): 29.7 ± 0.56 µM

Structure (SMILES): COc1ccc(C2=C[C@H]([C@@]3(O)C(=O)N(Cc4ccccc4)c4ccccc43)OC2=O)cc1 [6ad]
- PTP1B lC50 (Human PTP1B; [1]): 7.82 ± 1.44 µM

Structure (SMILES): COc1ccc2c(c1)[C@@](O)([C@H]1C=C(c3ccccc3)C(=O)O1)C(=O)N2Cc1ccccc1 [6l]
- PTP1B lC50 (Human PTP1B; [1]): 21.65 ± 1.48 µM

Structure (SMILES): O=C1O[C@@H]([C@@]2(O)C(=O)N(Cc3ccc(C(=O)NC45CC6CC(CC(C6)C4)C5)cc3)c3cccc(Br)c32)C=C1c1ccccc1 [6s]
- PTP1B lC50 (Human PTP1B; [1]): 2.11 ± 0.22 µM

Structure (SMILES): Cc1ccc2c(c1)C(O)(C1C=C(c3ccccc3)C(=O)O1)C(=O)N2Cc1ccccc1 (stereo not drawn) [6k]
- IC50 (Human PTP1B; read-out: PTP1B lC50, DiFMUP assay at room temperature, positive control ABBV-CLS-484, negative control DMSO): 9.08 ± 0.12 µM

Structure (SMILES): COc1ccc(C2=C[C@H]([C@@]3(O)C(=O)N(Cc4ccccc4)c4cccc(Br)c43)OC2=O)cc1OC [6ai]
- PTP1B lC50 (Human PTP1B; [1]): 22.65 ± 0.75 µM

Structure (SMILES): O=C1O[C@@H]([C@@]2(O)C(=O)Nc3ccccc32)C=C1c1ccccc1 [6b]
- PTP1B lC50 (Human PTP1B; [1]): 6.93 ± 0.77 µM

Structure (SMILES): O=C1O[C@@H]([C@@]2(O)C(=O)N(Cc3ccccc3)c3cccc(Cl)c32)C=C1c1ccccc1 [6d]
- IC50 (Human PTP1B): 10 to 30 µM
- IC50 (Human PTP1B; [2]): 17.8 ± 1.2 µM

Structure (SMILES): COc1ccc(C2=C[C@H]([C@@]3(O)C(=O)N(Cc4ccccc4)c4cccc(Br)c43)OC2=O)cc1 [6ae]
- PTP1B lC50 (Human PTP1B; [1]): 11.17 ± 2.87 µM

Structure (SMILES): O=C1O[C@@H]([C@@]2(O)C(=O)N(Cc3ccccc3)c3cccc(Br)c32)C=C1c1ccc2ccccc2c1 [(R, R)-3ak]
- IC50 (Human PTP1B): 3.31 ± 0.2 µM

Structure (SMILES): O=C1O[C@@H]([C@@]2(O)C(=O)N(Cc3ccccc3)c3cccc(Br)c32)C=C1c1ccccc1 [6e]
- IC50 (Human PTP1B; [3]): 2.1 ± 0.31 µM

Structure (SMILES): COc1ccc2c(c1)N(Cc1ccccc1)C(=O)[C@]2(O)[C@H]1C=C(c2ccccc2)C(=O)O1 [6p]
- PTP1B lC50 (Human PTP1B; [1]): 8.23 ± 0.91 µM

Structure (SMILES): O=C1O[C@@H]([C@@]2(O)C(=O)Nc3ccccc32)C(c2ccccc2)=C1c1ccccc1 [6am]
- PTP1B lC50 (Human PTP1B; [1]): 4.03 ± 0.45 µM

Structure (SMILES): O=C1O[C@H]([C@]2(O)C(=O)N(Cc3ccccc3)c3cccc(Br)c32)C=C1c1ccc2ccccc2c1 [(S, S)-3ak]
- synergy index = (IC50 IFNγ− – IC50 IFNγ+)/IC50 IFNγ+ (MB231 cells): 3.49
- IC50 (Human PTP1B): 0.81 ± 0.1 µM
- potency relative to the enantiomer (R, R)-3ak (Human PTP1B; DiFMUP assay): 3 fold
- IC50 against PTP1B (Human PTP1B; DiFMUP assay, values in text and figure): submicromolar

Structure (SMILES): O=C1O[C@@H]([C@@]2(O)C(=O)N(Cc3ccccc3)c3ccc(Cl)cc32)C=C1c1ccccc1 [6j]
- PTP1B lC50 (Human PTP1B; [1]): 15.17 ± 1.02 µM

Structure (SMILES): O=C1OC(C2(O)C(=O)N(Cc3ccccc3)c3cccc(Br)c32)C=C1c1ccc2c(c1)OCO2 (stereo not drawn) [6ah]
- IC50 (Human PTP1B): 0.29 to 1.58 µM
- IC50 (Human PTP1B; [2]): 0.92 ± 0.18 µM

Structure (SMILES): Cc1ccc2c(c1Br)[C@@](O)([C@H]1C=C(c3ccccc3)C(=O)O1)C(=O)N2Cc1ccccc1 [6g]
- PTP1B lC50 (Human PTP1B; [1]): 8.13 ± 0.06 µM

Structure (SMILES): Cc1ccc(C2=C[C@H]([C@@]3(O)C(=O)N(Cc4ccccc4)c4ccccc43)OC2=O)cc1 [6ab]
- IC50 (Human PTP1B; [3]): 6.68 ± 0.88 µM

Structure (SMILES): CC1(C)[C@H]2CC=C(CCOC(=O)c3ccc(CN4C(=O)[C@](O)([C@H]5C=C(c6ccccc6)C(=O)O5)c5c(Br)cccc54)cc3)[C@@H]1C2 [6u]
- PTP1B lC50 (Human PTP1B; [1]): 0.29 ± 0.02 µM

Structure (SMILES): Cc1ccc(C2=C[C@H]([C@@]3(O)C(=O)N(Cc4ccccc4)c4cccc(Br)c43)OC2=O)cc1 [6ac]
- PTP1B lC50 (Human PTP1B; [1]): 9.13 ± 0.62 µM

Structure (SMILES): O=C1O[C@@H]([C@@]2(O)C(=O)N(Cc3ccccc3)c3ccc(Cl)c(Cl)c32)C=C1c1ccccc1 [6i]
- IC50 (Human PTP1B; [3]): 3.02 ± 0.22 µM

Structure (SMILES): CC1CCC(C(C)C)C(OC(=O)c2ccc(C3=C(c4ccccc4)C(=O)OC3C3(O)C(=O)Nc4ccccc43)cc2)C1 (stereo not drawn) [6au]
- IC50 (Human PTP1B): 0.29 to 1.58 µM
- IC50 (Human PTP1B; [2]): 1.56 ± 0.24 µM
